Measured values: ChEMBL document CHEMBL1201862, “PubChem BioAssay data set” (2004)
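A five-concentration, 48-hour dose response in 96-well plates underlies each endpoint, interpolated linearly between surrounding concentrations. GI50 is the concentration that inhibits growth by half.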 The source made the active and inactive calls. Rule as the data show it: active = GI50 up to about 1.1 µM and inactive = higher.

What was measured:
Experiment in all cases: growth of human tumour cells (NCI), 48 h
[1] = tested on: KM-20L2
[2] = tested on: DMS-114
[3] = tested on: SNB-78
[4] = tested on: DU-145
[5] = tested on: TK-10
[6] = tested on: T47D
[7] = tested on: MDA-MB-435
[8] = tested on: LXFL 529
[9] = tested on: RXF 631

Measured: GI50

COc1cc(/C=C/c2ccc(OC)c(OC)c2)oc(=O)c1
inactive: [1] > 167 µM | [2] > 182 µM | [3] 150 µM

CCCCN1CN2C(=O)C(C(=O)OCC)C(=O)c3sc4nc(SC)nc1c4c32 (centres undefined)
inactive: [4] 19 µM | [5] 14.9 µM | [6] 19.7 µM | [7] 18.2 µM

O=NN(CCCl)C(=O)N[C@H]1CC[C@@H](O)CC1
inactive: [1] > 100 µM | [2] 20.7 µM | [3] 24.7 µM

CCOC(=O)C1=C(C)N2CCCOC2(C)C(C(=O)OC)C1c1cccc([N+](=O)[O-])c1 (centres undefined)
inactive: [1] > 100 µM | [5] > 100 µM | [2] 44.8 µM | [8] 45.7 µM

CCOC(=O)c1ccc(C)c(/N=N/N(C)C)c1
inactive: [1] > 100 µM | [5] > 100 µM | [2] > 100 µM

CCCCNS(=O)(=O)c1n[nH]c(=O)[nH]c1=O
inactive: [4] > 100 µM | [6] > 100 µM | [7] > 100 µM

CC(C)NC(=O)OCc1c(CO)c2c(n1C)-c1ccccc1CC2
inactive: [1] 30.8 µM | [2] 18.7 µM | [3] 33.8 µM

CC1Cc2cc(O)c(O)cc2-c2cc(O)c(O)cc2CC1C (centres undefined)
inactive: [4] 36.3 µM | [5] 26.4 µM | [6] 25.2 µM | [7] 3.16 µM

COc1ccc(CN/C=N/C(C#N)=C(\N)C#N)cc1OC
inactive: [4] > 100 µM | [5] > 100 µM | [6] 83.6 µM | [7] > 100 µM

CCOC(=O)Cn1c(=O)c(C)cn(COCCO)c1=O
inactive: [4] > 100 µM | [5] > 100 µM | [6] > 100 µM | [7] > 100 µM

Cc1ccc(S(=O)(=O)NC(=N)N(C)N=O)cc1
inactive: [4] > 100 µM | [5] > 100 µM | [6] > 100 µM | [7] > 100 µM

Cc1ccc(C2COc3cc(O)c(O)cc3C2)cc1 (centres undefined)
inactive: [1] 35.9 µM | [2] 12.7 µM | [3] 31.6 µM

Cc1cccc2ns[s+]c12
inactive: [1] > 100 µM | [5] > 100 µM | [2] 20.5 µM | [3] > 100 µM | [8] 37.8 µM

C[n+]1c2ccccc2c(NC(CS)C(=O)O)c2ccccc21 (centres undefined)
inactive: [1] 29.4 µM | [5] 36.6 µM | [2] 29.2 µM | [9] 37.2 µM | [3] 45.2 µM | [8] 20.4 µM

Cc1ccc(NC(Nc2ccc(C)cc2C)=C(C(Cl)=C(Cl)Cl)[N+](=O)[O-])c(C)c1
inactive: [4] 14.7 µM | [5] 16.9 µM | [6] 10.5 µM | [7] 4.89 µM

CCN1CCCC(NCc2c3ccccc3c(CNC3CCCN(CC)C3)c3ccccc23)C1 (centres undefined)
inactive: [1] 3.76 µM | [2] 4.99 µM | [3] 22.3 µM

CCCCS(=N)(=O)CC[C@H](N)C(=O)O (some centres undefined) [BUTHIONINE SULFOXIME]
inactive: [4] > 5000 µM | [1] > 5000 µM | [5] > 5000 µM | [2] > 5000 µM | [6] > 5000 µM | [7] > 5000 µM | [3] > 5000 µM

CCCCCCCCCCCCCCCCSCC(COC)COP(=O)([O-])OCC[N+](C)(C)C (centres undefined) [ILMOFOSINE]
inactive: [2] 7.5 µM | [3] 10.2 µM
